Experimental data published in patent publication EP4603105A1, “PHARMACEUTICAL COMPOSITION CONTAINING CYCLIC COMPOUND HAVING SELECTIVE KRAS INHIBITORY EFFECT AGAINST HRAS AND NRAS” (CHUGAI SEIYAKU KABUSHIKI KAISHA, priority 2022, dated 2024).

Assays:
[1] = molecular target: GDP-bound NRAS wild-type protein (Homo sapiens, UniProt P01111); assay: Binding to NRAS by surface plasmon resonance (SPR), KD and KD ratio to KRAS
Summary of the method: (§1)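 Affinity is measured by surface plasmon resonance at 30°C against captured, GDP-loaded RAS carrying a biotinylated Avi tag. Compounds are titrated by single-cycle kinetics, and KD comes from a 1:1 fit.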

HRAS wild-type protein = HRAS wild-type protein (Homo sapiens, UniProt P01112); assay: Binding to HRAS by surface plasmon resonance (SPR), KD and KD ratio to KRAS
Summary of the method: as §1

[2] = tested on: human lung cancer strain NCI-H441; assay type: cell-based
Summary of the method: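 Readout: […] after the ATP-based reagent. Compound: serial dilutions in dimethyl sulfoxide.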

[3] = ratio of the KD value with respect to GDP-bound NRAS wild-type protein to the KD value with respect to KRAS
[4] = ratio of the KD value with respect to HRAS wild-type protein to the KD value with respect to KRAS
[5] = ratio of KD for GDP-bound NRAS wild-type protein to KD for KRAS
[6] = ratio of KD for HRAS wild-type protein to KD for KRAS
[7] = ratio of KD value for GDP-bound NRAS wild-type protein to KD value for KRAS (SPR)
[8] = ratio of KD value for HRAS wild-type protein to KD value for KRAS (SPR)

Sequence of GDP-bound NRAS wild-type protein (P01111 whole entry): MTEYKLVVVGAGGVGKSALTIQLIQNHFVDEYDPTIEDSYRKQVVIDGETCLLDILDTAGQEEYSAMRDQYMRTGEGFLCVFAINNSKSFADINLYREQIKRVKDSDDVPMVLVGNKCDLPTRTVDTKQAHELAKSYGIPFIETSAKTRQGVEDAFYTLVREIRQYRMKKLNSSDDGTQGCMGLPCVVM
Sequence of HRAS wild-type protein (P01112 whole entry): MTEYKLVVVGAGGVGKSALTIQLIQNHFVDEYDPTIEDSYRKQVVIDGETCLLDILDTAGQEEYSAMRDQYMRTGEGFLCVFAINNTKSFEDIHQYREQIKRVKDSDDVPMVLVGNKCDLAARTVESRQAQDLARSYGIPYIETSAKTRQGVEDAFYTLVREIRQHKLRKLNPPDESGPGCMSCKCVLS

SMILES | IC50 [2] [nM] | NRAS /KRAS [1, 3] | HRAS /KRAS (HRAS wild-type protein; [4]) | NRAS /KRAS [1, 5] | HRAS /KRAS (HRAS wild-type protein; [6]) | NRAS /KRAS [1, 7] | HRAS /KRAS (HRAS wild-type protein; [8])
CC[C@H](C)[C@@H]1NC(=O)[C@H](CC(C)C)N(C)C(=O)C[C@@H](C(=O)N2CCOCC2)N(C)C(=O)[C@H](C2CCCC2)N(C)C(=O)C2(CCCC2)NC(=O)[C@@H]2C[C@H](O)CN2C(=O)[C@H](CCc2cc(F)c(C(F)(F)F)c(F)c2)NC(=O)CN(C)C(=O)[C@H](Cc2ccc(C(F)(F)F)cc2)N2CCCC[C@@H](C2=O)N(C)C(=O)CN(C)C1=O [PP0556] | 21 | C (A compound having a KD ratio of 0.1 or more and less than 3 is denoted as C) | B (a compound having 3 or more and less than 10 is denoted as B) |  |  |  | 
CCO[C@@H]1C[C@H]2C(=O)NC3(CCCC3)C(=O)N(C)[C@@H](C3CCCC3)C(=O)N(C)[C@H](C(=O)N(C)C)CC(=O)N(C)[C@@H](CC)C(=O)N[C@@H]([C@@H](C)CC)C(=O)N(C)CC(=O)N(C)[C@H]3CC(C)=CCN(C3=O)[C@@H](Cc3ccc(C(F)(F)F)cc3)C(=O)N(C)CC(=O)N[C@@H](CCc3cc(F)c(C(F)(F)F)c(F)c3)C(=O)N2C1 [PP1036] | 150 |  |  | C (A compound having a KD ratio of 0.1 or more and less than 3 is denoted as C) | C (A compound having a KD ratio of 0.1 or more and less than 3 is denoted as C) |  | 
CCO[C@@H]1C[C@H]2C(=O)NC3(CC(F)(F)C3)C(=O)N(C)[C@@H](C(CC)CC)C(=O)N3CCC[C@@H]3CC(=O)N(C)[C@@H](CC)C(=O)N[C@@H]([C@@H](C)CC)C(=O)N(C)CC(=O)N(C)[C@H]3C/C=C\CCN(C3=O)[C@@H](Cc3ccc(C(F)(F)F)cc3)C(=O)N(C)CC(=O)N[C@@H](CCc3cc(F)c(C(F)(F)F)c(F)c3)C(=O)N2C1 [PP1608] | 70.1 |  |  |  |  | A (a compound having 10 or more and less than 20 is denoted as A) | A (a compound having 10 or more and less than 20 is denoted as A)
CCC[C@H]1C(=O)N[C@@H]([C@@H](C)CC)C(=O)N[C@@H](C)C(=O)N(C)[C@H]2C/C=C\CCN(C2=O)[C@@H](Cc2ccc(C(F)(F)F)cc2)C(=O)N(C)CC(=O)N[C@@H](CCc2cc(F)c(C(F)(F)F)c(F)c2)C(=O)N2C[C@H](OCC)C[C@H]2C(=O)NC2(CC(C)(C)C2)C(=O)N(C)[C@@H](C2CCCC2)C(=O)N(C)[C@H](C(=O)N(C)C)CC(=O)N1C [PP1927] | 23.5 | A (a compound having 10 or more and less than 20 is denoted as A) | A (a compound having 10 or more and less than 20 is denoted as A) |  |  |  | 
CCO[C@@H]1C[C@H]2C(=O)NC3(CCC3)C(=O)N(C)[C@@H](C(CC)CC)C(=O)N(C)[C@H](C(=O)N3CCCC3)CC(=O)N(C)[C@H]3CCC/C=C/c4ccc(cc4)C[C@@H](C(=O)N(C)CC(=O)N[C@@H](CCc4cc(F)c(C(F)(F)F)c(F)c4)C(=O)N2C1)N1CC/C=C\C[C@@H](C1=O)N(C)C(=O)CN(C1CC1)C(=O)[C@H]([C@@H](C)CC)NC3=O [PP2957] | 4.6 |  |  | AA (a compound having 20 or more is denoted as AA) | A (a compound having 10 or more and less than 20 is denoted as A) |  | 

Further lines, with some results ahead:

IC50 [2] [nM] | SMILES | NRAS /KRAS [1, 3] | HRAS /KRAS (HRAS wild-type protein; [4]) | NRAS /KRAS [1, 5] | HRAS /KRAS (HRAS wild-type protein; [6]) | NRAS /KRAS [1, 7] | HRAS /KRAS (HRAS wild-type protein; [8])
20.7 | CCO[C@@H]1C[C@H]2C(=O)NC3(CC(C)(C)C3)C(=O)N(C)[C@@H](C3CCCC3)C(=O)N(C)[C@H](C(=O)N(C)CC)CC(=O)N(C)[C@@H](C3CC3)C(=O)N[C@@H]([C@@H](C)CC)C(=O)N(C)CC(=O)N(C)[C@H]3C/C=C\CCN(C3=O)[C@@H](Cc3ccc(C(F)(F)F)cc3)C(=O)N(C)CC(=O)N[C@@H](CCc3ccc(C(F)(F)F)c(OC)c3)C(=O)N2C1 [PP1981] | A (a compound having 10 or more and less than 20 is denoted as A) | A (a compound having 10 or more and less than 20 is denoted as A) |  |  |  | 
3.1 | C#CC[C@H]1C(=O)N[C@@H]([C@@H](C)CC)C(=O)N(C)CC(=O)N(C)[C@H]2C/C=C\CCN(C2=O)[C@@H](Cc2ccc(C(F)(F)F)cc2)C(=O)N(C)CC(=O)N[C@@H](CCc2cc(F)c(C(F)(F)F)c(F)c2)C(=O)N2C[C@H](F)C[C@H]2C(=O)NC2(CC(C)(C)C2)C(=O)N(C)[C@@H](C2CCCC2)C(=O)N(C)[C@H](C(=O)N(C)CC)CC(=O)N1C [PP1691] |  |  |  |  | A (a compound having 10 or more and less than 20 is denoted as A) | A (a compound having 10 or more and less than 20 is denoted as A)
